Assay results: patent publication US9255150B2, “Remedies for pemphigus containing anti-Fas ligand antibodies” (PINCELL SRL, priority 2008, dated 2016)
Peptide text beside a SMILES is read from it. * marks the point of attachment. Cbz = O=C(OCc1ccccc1)*; CH2F = FC*

Legend:
Type in all cases: cell-based, human
[1] = system: keratinocytes; assay: Pemphigus sera-induced keratinocyte apoptosis, TUNEL staining; conditions: sera pretreated with anti-FasL neutralizing antibody (2.5 mg per ml for 30 min) or Z-IETD-FMK (100 μM for 30 min); FIG. 6
Experimental: As apoptotic keratinocytes are abundantly expressed in pemphigus, we wanted to explore whether pemphigus sera are capable of inducing apoptosis in normal human keratinocytes. To this purpose, keratinocytes were plated in chamber slides and cultured in serum-free medium (KGM) up to preconfluence. Cells were then cultured in keratinocyte basal medium and treated for 48 h with the addition of 25% serum from either untreated patients or patients treated with systemic corticosteroids. Sera from healthy subjects were used as controls. Apoptosis was evaluated by TUNEL staining in situ. Approximately 100 cells were evaluated, in randomly selected fields, and the percentage of TUNEL-positive cells was counted.
FasL is one of the major triggers of the caspase-8 activated extrinsic apoptotic pathway. Therefore, we wanted to evaluate whether this pathway plays a role in pemphigus apoptosis. To this purpose, patient sera were pretreated with anti-FasL neutralizing antibody or caspase-8 inhibitor, and added to keratinocyte cultures. Keratinocytes were cultured in KGM and treated with pemphigus sera or with sera from untreated patients. Sera were pretreated with anti-FasL neutralizing antibody (2.5 mg per ml for 30 min) or caspase-8 inhibitor Z-IETD-FMK (100 μM for 30 min). Apoptosis was evaluated by TUNEL staining.

[2] = system: keratinocytes; assay: Pemphigus sera-induced Dsg3 cleavage and caspase-8 activation in confluent keratinocytes, Western blotting; conditions: pretreatment with Z-IETD-FMK 100 μM for 30 min or NOK2 15 μg/ml, then 72 hrs sera; FIG. 12A
Experimental: To investigate whether the extrinsic apoptotic pathway is responsible for dsg cleavage, we pretreated confluent keratinocytes with caspase-8 inhibitor Z-IETD-FMK (100 μM for 30 min) or with anti-FasL (NOK2, 15 μg/ml)Ab. Then cells were incubated for 72 hrs with healthy or untreated pemphigus sera. Protein extracts from the culture were analyzed by Western blotting using anti-Dsg3 antibodies and anti-caspase-8 Ab. Vinculin was used as internal control. (FIG. 12A).

[3] = system: keratinocytes; assay: Pemphigus sera-induced cell detachment (acantholysis) of keratinocytes; conditions: pretreatment with Z-IETD-FMK 100 μM for 30 min or NOK2 15 μg/ml, then 72 hrs sera; FIG. 12B

## CC[C@H](C)[C@H](NC(=O)OCc1ccccc1)C(=O)N[C@@H](CCC(=O)OC)C(=O)N[C@H](C(=O)N[C@@H](CC(=O)OC)C(=O)CF)[C@@H](C)O [Z-IETD-FMK] (Cbz-IE(OMe)TD(OMe)-CH2F)
[1]
  pemphigus sera-induced keratinocyte apoptosis (TUNEL staining): partially prevented
[2]
  caspase-8 activation induced by untreated pemphigus sera: prevents
  dsg cleavage (Dsg3) induced by untreated pemphigus sera: prevents
[3]
  cell detachment (i.e. acantholysis) induced by untreated pemphigus sera: prevented
